Drawing on US20250186437A1, “CARBOLINE COMPOUNDS AND USE THEREOF” (PTC Therapeutics, Inc., priority 2021, published 2025), this text covers IC50 for 21 molecules.

Each structure is given as a SMILES string.

This assay concerns MOLM-13 cells. The assay can be described thus: MOLM-13 Cell Proliferation Assay (indicator of DHODH inhibition). It is filed as cell-based. As to conditions: Homo sapiens, 72 Hours of culture, CellTiter-Glo, no uridine. In outline:
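Low-passage MOLM-13 cells (10^4/well) in RPMI 1640 + 10% FBS exposed to compound (0.5% DMSO final) for 72 h at 37 °C, 5% CO2. Viability read by CellTiter-Glo luminescence; growth reflects de novo pyrimidine synthesis dependent on DHODH.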
On to `N#Cc1ccnc(N2CCc3c([nH]c4cc(F)c(Cl)cc34)C2c2ccc(/C=C/CCO)cc2)n1` (stereo not drawn) [Compound 224, 2-(6-chloro-7-fluoro-1-{4-[(1E)-4-hydroxybut-1-en-1-yl]phenyl}-1,3,4,9-tetrahydro-2H-pyrido[3,4-b]indol-2-yl)pyrimidine-4-carbonitrile], for which it took 3.9 nM to reach half-maximal inhibition (IC50). In other words, the single-digit nanomolar range. To `Nc1ncc(C2c3[nH]c4ccc(Cl)c(F)c4c3CCN2c2nccc(C(F)(F)F)n2)cn1` (stereo not drawn) [Compound 225, 5-{6-chloro-5-fluoro-2-[4-(trifluoromethyl)pyrimidin-2-yl]-2,3,4,9-tetrahydro-1H-pyrido[3,4-b]indol-1-yl}pyrimidin-2-amine] belongs 18.3 nM; to `Fc1ncccc1C1c2[nH]c3ccc(Cl)c(F)c3c2CCN1c1nccc(C(F)(F)F)n1` (stereo not drawn) [Compound 226, 6-chloro-5-fluoro-1-(2-fluoropyridin-3-yl)-2-[4-(trifluoromethyl)pyrimidin-2-yl]-2,3,4,9-tetrahydro-1H-pyrido[3,4-b]indole], 25.4 nM.

For the molecule `N#Cc1cc(C#N)nc(N2CCc3c([nH]c4cc(F)c(Cl)cc34)C2c2cccc(F)c2F)n1` (stereo not drawn) [Compound 227, 2-[6-chloro-1-(2,3-difluorophenyl)-7-fluoro-1,3,4,9-tetrahydro-2H-pyrido[3,4-b]indol-2-yl]pyrimidine-4,6-dicarbonitrile], inhibition was half-maximal at 16.4 nM (IC50). With `Cc1ccc(C2c3[nH]c4ccc(Cl)c(F)c4c3CCN2c2nc(C#N)cc(C#N)n2)cc1` (stereo not drawn) [Compound 228, 2-[6-chloro-5-fluoro-1-(4-methylphenyl)-1,3,4,9-tetrahydro-2H-pyrido[3,4-b]indol-2-yl]pyrimidine-4,6-dicarbonitrile] the figure was 4.4 nM; with `Cc1ccc(C2c3[nH]c4ccc(Cl)c(F)c4c3CCN2c2nc(C#N)cc(C#N)n2)c(F)c1F` (stereo not drawn) [Compound 229, 2-[6-chloro-1-(2,3-difluoro-4-methylphenyl)-5-fluoro-1,3,4,9-tetrahydro-2H-pyrido[3,4-b]indol-2-yl]pyrimidine-4,6-dicarbonitrile], 1.9 nM; with `Fc1c(Cl)ccc2[nH]c3c(c12)CCN(c1nccc(C(F)(F)F)n1)C3c1cnc(-n2cncn2)nc1` (stereo not drawn) [Compound 230, 6-chloro-5-fluoro-1-[2-(1H-1,2,4-triazol-1-yl)pyrimidin-5-yl]-2-[4-(trifluoromethyl)pyrimidin-2-yl]-2,3,4,9-tetrahydro-1H-pyrido[3,4-b]indole], 8.3 nM. Regarding `Cc1cc(C#N)nc(N2CCc3c([nH]c4ccc(Cl)c(F)c34)C2c2ccc(C)c(F)c2F)n1` (stereo not drawn) [Compound 232, 2-[6-chloro-1-(2,3-difluoro-4-methylphenyl)-5-fluoro-1,3,4,9-tetrahydro-2H-pyrido[3,4-b]indol-2-yl]-6-methylpyrimidine-4-carbonitrile], half-maximal inhibition (IC50) was put at 0.5 nM. Compared with the last molecule, the IC50 is about 17-fold lower.

As for `Cc1ccnc(N2CCc3c([nH]c4ccc(Cl)cc34)[C@@H]2c2ccc(C)c(F)c2F)n1` [Compound 234, (1S)-6-chloro-1-(2,3-difluoro-4-methylphenyl)-2-(4-methylpyrimidin-2-yl)-2,3,4,9-tetrahydro-1H-pyrido[3,4-b]indole], the IC50 came out at 0.8 nM.

In turn, `Cc1ccc(C2c3[nH]c4ccc(Cl)cc4c3CCN2c2ncc(F)c(C)n2)c(F)c1F` (stereo not drawn) [Compound 235, 6-chloro-1-(2,3-difluoro-4-methylphenyl)-2-(5-fluoro-4-methylpyrimidin-2-yl)-2,3,4,9-tetrahydro-1H-pyrido[3,4-b]indole] registered an IC50 of 1.5 nM. Against the preceding molecule, the IC50 is about 1.9-fold higher. Consider `N#Cc1ccnc(N2CCc3c([nH]c4ccc(Cl)c(F)c34)C2c2ccc(/C=C/CCO)cc2)n1` (stereo not drawn) [Compound 236, 2-(6-chloro-5-fluoro-1-{4-[(1E)-4-hydroxybut-1-en-1-yl]phenyl}-1,3,4,9-tetrahydro-2H-pyrido[3,4-b]indol-2-yl)pyrimidine-4-carbonitrile], for which the IC50 was 1.8 nM.

In turn, `Cc1ccnc(N2CCc3c([nH]c4ccc(Cl)c(F)c34)C2c2ccc(/C=C/CCO)cc2)n1` (stereo not drawn) [Compound 237, (3E)-4-{4-[6-chloro-5-fluoro-2-(4-methylpyrimidin-2-yl)-2,3,4,9-tetrahydro-1H-pyrido[3,4-b]indol-1-yl]phenyl}but-3-en-1-ol] displayed an IC50 of 4.7 nM. Compared with the last molecule, the IC50 is about 2.6-fold higher. To `Cc1ccc([C@H]2c3[nH]c4ccc(Cl)cc4c3CCN2c2ncc(F)cn2)c(F)c1F` [Compound 238, (1S)-6-chloro-1-(2,3-difluoro-4-methylphenyl)-2-(5-fluoropyrimidin-2-yl)-2,3,4,9-tetrahydro-1H-pyrido[3,4-b]indole] belongs 0.9 nM; to `Cc1nc(N2CCc3c([nH]c4cc(F)c(Cl)cc34)C2c2ccc(/C=C/CCO)cc2)ncc1F` (stereo not drawn) [Compound 239, (3E)-4-{4-[6-chloro-7-fluoro-2-(5-fluoro-4-methylpyrimidin-2-yl)-2,3,4,9-tetrahydro-1H-pyrido[3,4-b]indol-1-yl]phenyl}but-3-en-1-ol], 2.5 nM; to `Cc1nc(N2CCc3c([nH]c4cc(F)c(Cl)cc34)C2c2ccc(CCCCO)cc2)ncc1F` (stereo not drawn) [Compound 240, 4-{4-[6-chloro-7-fluoro-2-(5-fluoro-4-methylpyrimidin-2-yl)-2,3,4,9-tetrahydro-1H-pyrido[3,4-b]indol-1-yl]phenyl}butan-1-ol], 4.1 nM. To `Cc1nc(N2CCc3c([nH]c4ccc(Cl)c(F)c34)C2c2ccc(/C=C/CCO)cc2)ncc1F` (stereo not drawn) [Compound 241, (3E)-4-{4-[6-chloro-5-fluoro-2-(5-fluoro-4-methylpyrimidin-2-yl)-2,3,4,9-tetrahydro-1H-pyrido[3,4-b]indol-1-yl]phenyl}but-3-en-1-ol] belongs 3.4 nM; to `Cc1cc(C)nc(N2CCc3c([nH]c4ccc(Cl)c(F)c34)C2c2ccc(/C=C/CCO)cc2)n1` (stereo not drawn) [Compound 242, (3E)-4-{4-[6-chloro-2-(4,6-dimethylpyrimidin-2-yl)-5-fluoro-2,3,4,9-tetrahydro-1H-pyrido[3,4-b]indol-1-yl]phenyl}but-3-en-1-ol], 3.2 nM. `Cc1nc(N2CCc3c([nH]c4ccc(Cl)c(F)c34)C2c2ccc(/C=C/CCO)cc2)nc(C)c1F` (stereo not drawn) [Compound 243, (3E)-4-{4-[6-chloro-5-fluoro-2-(5-fluoro-4,6-dimethylpyrimidin-2-yl)-2,3,4,9-tetrahydro-1H-pyrido[3,4-b]indol-1-yl]phenyl}but-3-en-1-ol]: half-maximal inhibition (IC50) was put at 1.1 nM. `Cc1cc(C)nc(N2CCc3c([nH]c4cc(F)c(Cl)cc34)C2c2ccc(/C=C/CCO)cc2)n1` (stereo not drawn) [Compound 244, (3E)-4-{4-[6-chloro-2-(4,6-dimethylpyrimidin-2-yl)-7-fluoro-2,3,4,9-tetrahydro-1H-pyrido[3,4-b]indol-1-yl]phenyl}but-3-en-1-ol]: 2.8 nM corresponded to half-maximal inhibition (IC50). To `Cc1cc(C)nc(N2CCc3c([nH]c4cc(F)c(Cl)cc34)C2c2ccc(CCCCO)cc2)n1` (stereo not drawn) [Compound 245, 4-{4-[6-chloro-2-(4,6-dimethylpyrimidin-2-yl)-7-fluoro-2,3,4,9-tetrahydro-1H-pyrido[3,4-b]indol-1-yl]phenyl}butan-1-ol] belongs 3.6 nM. To `Cc1nc(N2CCc3c([nH]c4ccc(Cl)c(F)c34)C2c2ccc(CCCCO)cc2)ncc1F` (stereo not drawn) [Compound 246, 4-{4-[6-chloro-5-fluoro-2-(5-fluoro-4-methylpyrimidin-2-yl)-2,3,4,9-tetrahydro-1H-pyrido[3,4-b]indol-1-yl]phenyl}butan-1-ol] belongs 2.8 nM.
